Data taken from patent US20120201749A1, “NP-1 Antagonists and Their Therapeutic Use” (priority 2009, published 2012).

Molecular target: NP-1 (Homo sapiens, UniProt O14786)
Assay: Biotinylated-VEGF-A165 (bt-VEGF-A165) binding to NP-1
Settings: for inhibition at 3 µM: 3 μM compound, read-out: Screen (% inhibition at 3 μM); for inhibition at 30 µM: 30 μM compound, read-out: Screen (% inhibition at 30 μM)
Method: Human prostate carcinoma DU145 cells were cultured in growth medium (RPMI 1640 containing 10% FBS and L-glutamine). DU145 cells were seeded at the density of 2×10^4 cells per well (96-well plates) in 0.1 ml growth medium and transfected with adenovirus vectors containing the full-length open-reading frame of human NP-1. The Ad.NP-1-transfected cells grew for 2 days prior to a binding assay.
Confluent Ad.NP-1-transfected cells in 96-well plates were washed twice with phosphate-buffered saline (PBS). The various concentrations of compounds diluted in binding medium (Dulbecco's modified Eagle's medium, 25 mM HEPES pH 7.3 containing 0.1% BSA) were added, followed by addition of 2 nM of bt-VEGF-A165. After 2 h of incubation at room temperature, the medium was aspirated and washed three times with PBS. The bound bt-VEGF-A165 to NP-1 was detected by streptavidin-horseradish peroxidase conjugates and the enzyme substrate, and measured using a Tecan Genios plate reader at A450 nm with a reference wavelength at A595 nm. Non-specific binding was determined in the presence of 100-fold excess unlabelled VEGF-A165.
The 96-well plates were pre-coated with NP1 protein at 3 μg/ml overnight at 4° C. On the following day, the plates were treated with blocking buffer (PBS containing 1% BSA) and washed three times with wash buffer (PBS containing 0.1% Tween-20). The various concentrations of compounds diluted in PBS containing 1% DMSO were added, followed by addition of 0.25 nM of bt-VEGF-A165. After 2 h of incubation at room temperature, the plates were washed three times with wash buffer. The bound bt-VEGF-A165 to NP-1 was detected by streptavidin-horseradish peroxidase conjugates and the enzyme substrate, and measured using a Tecan Genios plate reader at A450 nm with a reference wavelength at A595 nm. Nonspecific binding was determined in the absence of NP-1 coated wells of the plates.

NP-1, sequence (O14786 22-923): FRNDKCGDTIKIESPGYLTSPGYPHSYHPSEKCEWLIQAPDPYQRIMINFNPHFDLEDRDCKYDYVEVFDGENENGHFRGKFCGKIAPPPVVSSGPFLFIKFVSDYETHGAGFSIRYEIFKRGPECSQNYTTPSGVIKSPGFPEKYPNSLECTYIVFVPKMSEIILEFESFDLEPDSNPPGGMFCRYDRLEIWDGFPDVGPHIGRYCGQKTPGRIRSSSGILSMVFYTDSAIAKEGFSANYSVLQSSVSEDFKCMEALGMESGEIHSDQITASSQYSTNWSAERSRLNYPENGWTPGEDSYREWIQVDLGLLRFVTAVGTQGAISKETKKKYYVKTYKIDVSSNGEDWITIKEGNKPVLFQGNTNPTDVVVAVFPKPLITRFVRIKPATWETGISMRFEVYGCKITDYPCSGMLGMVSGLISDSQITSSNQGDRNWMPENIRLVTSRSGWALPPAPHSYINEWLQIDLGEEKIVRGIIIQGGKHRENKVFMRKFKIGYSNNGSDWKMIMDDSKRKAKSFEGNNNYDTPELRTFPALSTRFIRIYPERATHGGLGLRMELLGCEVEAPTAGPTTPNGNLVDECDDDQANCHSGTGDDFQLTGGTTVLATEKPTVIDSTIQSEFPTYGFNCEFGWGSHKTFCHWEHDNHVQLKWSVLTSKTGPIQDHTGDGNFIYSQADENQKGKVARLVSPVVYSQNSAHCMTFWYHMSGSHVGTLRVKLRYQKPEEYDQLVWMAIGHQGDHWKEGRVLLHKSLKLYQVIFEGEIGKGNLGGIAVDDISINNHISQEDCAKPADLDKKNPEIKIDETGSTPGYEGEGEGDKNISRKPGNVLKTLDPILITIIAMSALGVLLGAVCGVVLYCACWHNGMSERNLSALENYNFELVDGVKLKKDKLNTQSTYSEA

Row | SMILES | inhibition at 3 µM | inhibition at 30 µM | IC50
1 | N=C(N)NCCC[C@H](NC(=O)c1sccc1NS(=O)(=O)c1cc(-c2ccccc2CNCc2ncc[nH]2)cc2c1OCC2)C(=O)O [Compound 24, (S)-5-Guanidino-2-({3-[5-(2-{[(1H-imidazol-2-ylmethyl)-amino]-methyl}-phenyl)-2,3-dihydro-benzofuran-7-sulfonylamino]-thiophene-2-carbonyl}-amino)-pentanoic acid] | 67% | 100% | –
2 | N=C(N)NCCC[C@H](NC(=O)c1sccc1NS(=O)(=O)c1cc(-c2ccccc2CNCc2ccccn2)cc2c1OCC2)C(=O)O [Compound 18, (S)-5-Guanidino-2-({3-[5-(2-{[(pyridin-2-ylmethyl)-amino]-methyl}-phenyl)-2,3-dihydro-benzofuran-7-sulfonylamino]-thiophene-2-carbonyl}-amino)-pentanoic acid] | 70% | 100% | –
3 | N=C(N)NCCC[C@H](NC(=O)c1sccc1NS(=O)(=O)c1cc(-c2ccccc2CN2CCNCC2)cc2c1OCC2)C(=O)O [Compound 20, (S)-5-Guanidino-2-({3-[5-(2-piperazin-1-ylmethyl-phenyl)-2,3-dihydro-benzofuran-7-sulfonylamino]-thiophene-2-carbonyl}-amino)-pentanoic acid] | 82% | 100% | 2000 nM
4 | N=C(N)NCCC[C@H](NC(=O)c1sccc1NS(=O)(=O)c1cc(-c2ccccc2CN2CCC(N3CCOCC3)CC2)cc2c1OCC2)C(=O)O [Compound 25, (S)-5-Guanidino-2-[(3-{5-[2-(4-morpholin-4-yl-piperidin-1-ylmethyl)-phenyl]-2,3-dihydro-benzofuran-7-sulfonylamino}-thiophene-2-carbonyl)-amino]-pentanoic acid] | 83% | 100% | 635 nM
5 | N=C(N)NCCC[C@H](NC(=O)c1sccc1NS(=O)(=O)c1cc(-c2ccccc2CNCc2ccncc2)cc2c1OCC2)C(=O)O [Compound 19, (S)-5-Guanidino-2-({3-[5-(2-{[(pyridin-4-ylmethyl)-amino]-methyl}-phenyl)-2,3-dihydro-benzofuran-7-sulfonylamino]-thiophene-2-carbonyl}-amino)-pentanoic acid] | 56% | – | –
6 | COC(=O)C1CCN(Cc2ccccc2-c2cc3c(c(S(=O)(=O)Nc4ccsc4C(=O)N[C@@H](CCCNC(=N)N)C(=O)O)c2)OCC3)CC1 [Compound 5, 1-(2-{7-[2-((S)-1-Carboxy-4-guanidino-butylcarbamoyl)-thiophen-3-ylsulfamoyl]-2,3-dihydro-benzofuran-5-yl}-benzyl)-piperidine-4-carboxylic acid methyl ester] | 92% | 100% | 14 nM
7 | N=C(N)NCCC[C@H](NC(=O)c1sccc1NS(=O)(=O)c1cc(-c2ccccc2CN2CCN(c3ccccn3)CC2)cc2c1OCC2)C(=O)O [Compound 14, (S)-5-Guanidino-2-[(3-{5-[2-(4-pyridin-2-yl-piperazin-1-ylmethyl)-phenyl]-2,3-dihydro-benzofuran-7-sulfonylamino}-thiophene-2-carbonyl)-amino]-pentanoic acid] | 67% | 100% | –
8 | N=C(N)NCCC[C@H](NC(=O)c1sccc1NS(=O)(=O)c1cc(-c2cccc(CN3CCN(Cc4cccnc4)CC3)c2)cc2c1OCC2)C(=O)O [Compound 11, (S)-5-Guanidino-2-[(3-{5-[3-(4-pyridin-3-ylmethyl-piperazin-1-ylmethyl)-phenyl]-2,3-dihydro-benzofuran-7-sulfonylamino}-thiophene-2-carbonyl)-amino]-pentanoic acid] | – | 98% | 1500 nM

Second part, the compound after the results:

Row | inhibition at 3 µM | inhibition at 30 µM | IC50 | SMILES
9 | 61% | – | – | N=C(N)NCCC[C@H](NC(=O)c1sccc1NS(=O)(=O)c1cc(-c2ccccc2CNCc2ccc(N)nc2)cc2c1OCC2)C(=O)O [Compound 39, (S)-2-({3-[5-(2-{[(6-Amino-pyridin-3-ylmethyl)-amino]-methyl}-phenyl)-2,3-dihydro-benzofuran-7-sulfonylamino]-thiophene-2-carbonyl}-amino)-5-guanidino-pentanoic acid]
10 | 55% | 100% | – | Cc1cc(CNCc2ccccc2-c2cc3c(c(S(=O)(=O)Nc4ccsc4C(=O)N[C@@H](CCCNC(=N)N)C(=O)O)c2)OCC3)no1 [Compound 26, (S)-5-Guanidino-2-({3-[5-(2-{[(5-methyl-isoxazol-3-ylmethyl)-amino]-methyl}-phenyl)-2,3-dihydro-benzofuran-7-sulfonylamino]-thiophene-2-carbonyl}-amino)-pentanoic acid]
11 | 40% | 90% | – | N=C(N)NCCC[C@H](NC(=O)c1sccc1NS(=O)(=O)c1cccc(NCc2csc(N3CCN(Cc4ccccn4)CC3)n2)c1)C(=O)O [Compound 65, (S)-5-guanidino-2-{[3-(3-{[2-(4-pyridin-2-ylmethyl-piperazin-1-yl)-thiazol-4-ylmethyl]-amino}-benzenesulfonylamino)-thiophene-2-carbonyl]-amino}-pentanoic acid]
12 | 78% | – | – | Cc1ccc(NCCCNCc2cccc(-c3cc4c(c(S(=O)(=O)Nc5ccsc5C(=O)N[C@@H](CCCNC(=N)N)C(=O)O)c3)OCC4)c2)nc1 [Compound 44, (S)-5-Guanidino-2-({3-[5-(3-{[3-(5-methyl-pyridin-2-ylamino)-propylamino]-methyl}-phenyl)-2,3-dihydro-benzofuran-7-sulfonylamino]-thiophene-2-carbonyl}-amino)-pentanoic acid]
13 | 79% | 100% | 686 nM | N=C(N)NCCC[C@H](NC(=O)c1sccc1NS(=O)(=O)c1cc(-c2cccc(CN3CCN(Cc4ccccn4)CC3)c2)cc2c1OCC2)C(=O)O [Compound 29, (S)-5-Guanidino-2-[(3-{5-[3-(4-pyridin-2-ylmethyl-piperazin-1-ylmethyl)-phenyl]-2,3-dihydro-benzofuran-7-sulfonylamino}-thiophene-2-carbonyl)-amino]-pentanoic acid]
14 | 68% | 90% | 637 nM | N=C(N)NCCC[C@H](NC(=O)c1sccc1NS(=O)(=O)c1cc(-c2cccc(CNCc3ncc[nH]3)c2)cc2c1OCC2)C(=O)O [Compound 37]
15 | 78% | – | – | N=C(N)NCCC[C@H](NC(=O)c1sccc1NS(=O)(=O)c1cc(-c2cccc(CNCCc3cn[nH]c3)c2)cc2c1OCC2)C(=O)O [Compound 42, (S)-5-Guanidino-2-({3-[5-(3-{[2-(1H-pyrazol-4-yl)-ethylamino]-methyl}-phenyl)-2,3-dihydro-benzofuran-7-sulfonylamino]-thiophene-2-carbonyl}-amino)-pentanoic acid]
16 | 37% | 79% | – | COc1ccccc1-c1nc(CNc2cccc(S(=O)(=O)Nc3ccsc3C(=O)N[C@@H](CCCNC(=N)N)C(=O)O)c2)no1 [Compound 69, (S)-5-Guanidino-2-{[3-(3-{[5-(2-methyoxy-phenyl)-[1,2,4]oxadiazol-3-ylmethyl]-amino}-benzenesulfonylamino)-thiophene-2-carbonyl]-amino}-pentanoic acid]
17 | 86% | – | 130 nM | N=C(N)NCCC[C@H](NC(=O)c1sccc1NS(=O)(=O)c1cc(-c2ccccc2CNCCc2cn[nH]c2)cc2c1OCC2)C(=O)O [Compound 47, (S)-5-Guanidino-2-({3-[5-(2-{[2-(1H-pyrazol-4-yl)-ethylamino]-methyl}-phenyl)-2,3-dihydro-benzofuran-7-sulfonylamino]-thiophene-2-carbonyl}-amino)-pentanoic acid]
18 | 77% | – | – | N=C(N)NCCC[C@H](NC(=O)c1sccc1NS(=O)(=O)c1cc(-c2cccc(CNCc3cc[nH]n3)c2)cc2c1OCC2)C(=O)O [Compound 52, (S)-5-Guanidino-2-({3-[5-(3-{[(1H-pyrazol-3-ylmethyl)-amino]-methyl}-phenyl)-2,3-dihydro-benzofuran-7-sulfonylamino]-thiophene-2-carbonyl}-amino)-pentanoic acid]
19 | 55% | – | – | N=C(N)NCCC[C@H](NC(=O)c1sccc1NS(=O)(=O)c1cccc(NCc2csc(N3CCN(c4cnccn4)CC3)n2)c1)C(=O)O [Compound 74]
20 | 81% | – | – | Cc1ccnc(NCCNCc2cccc(-c3cc4c(c(S(=O)(=O)Nc5ccsc5C(=O)N[C@@H](CCCNC(=N)N)C(=O)O)c3)OCC4)c2)c1 [Compound 45, (S)-5-Guanidino-2-({3-[5-(3-{[2-(4-methyl-pyridin-2-ylamino)-ethylamino]-methyl}-phenyl)-2,3-dihydro-benzofuran-7-sulfonylamino]-thiophene-2-carbonyl}-amino)-pentanoic acid]
21 | 72% | 92% | – | N=C(N)NCCC[C@H](NC(=O)c1sccc1NS(=O)(=O)c1cccc(NCc2csc(N3CCC(N)CC3)n2)c1)C(=O)O [Compound 64, (S)-5-guanidino-2-{[3-(3-{[2-(4-amino-piperidin-1-yl)-thiazol-4-ylmethyl]-amino}-benzenesulfonylamino)-thiophene-2-carbonyl]-amino}-pentanoic acid]
